Compound | logP
CC(C)(C)N(NC(=O)c1ccccc1)C(=O)c1cccc(C#N)c1 | 2.34
CC(C)(C)N(NC(=O)c1ccccc1)C(=O)c1ccc(F)cc1 | 2.85
CC(C)(C)N(NC(=O)c1ccccc1)C(=O)c1ccc(I)cc1 | 3.78
CC(C)(C)N(NC(=O)c1ccccc1)C(=O)c1ccccc1C(F)(F)F | 2.85
COc1ccc(C(=O)N(NC(=O)c2ccccc2)C(C)(C)C)cc1 | 2.56
CC(C)(C)N(NC(=O)c1ccccc1)C(=O)c1ccccc1 | 2.45
COc1cccc(C(=O)N(NC(=O)c2ccccc2)C(C)(C)C)c1 | 2.56
CC(C)(C)N(NC(=O)c1ccccc1)C(=O)c1cccc([N+](=O)[O-])c1 | 2.73
Cc1ccccc1C(=O)N(NC(=O)c1ccccc1)C(C)(C)C | 2.75
CC(C)(C)N(NC(=O)c1ccccc1)C(=O)c1c(F)cccc1Cl | 2.34
Cc1c(Cl)cccc1C(=O)N(NC(=O)c1ccccc1)C(C)(C)C | 3.57
CC(C)(C)N(NC(=O)c1ccccc1)C(=O)c1ccccc1F | 2.38
Cc1cc(C)cc(C(=O)N(NC(=O)c2ccccc2)C(C)(C)C)c1 | 3.39
CC(C)(C)N(NC(=O)c1ccccc1)C(=O)c1ccc(C(F)(F)F)cc1 | 3.77
CC(C)(C)N(NC(=O)c1ccccc1)C(=O)c1cccc(Cl)c1Cl | 3.41
CC(C)(C)N(NC(=O)c1ccccc1)C(=O)c1cccc(C(F)(F)F)c1 | 3.61
Cc1cccc(C(=O)N(NC(=O)c2ccccc2)C(C)(C)C)c1C | 3.1
Cc1ccc(C(=O)N(NC(=O)c2ccccc2)C(C)(C)C)cc1 | 2.99
CC(C)(C)N(NC(=O)c1ccccc1)C(=O)c1c(F)c(F)c(F)c(F)c1F | 3.25
Cc1ccc(C(=O)N(NC(=O)c2ccccc2)C(C)(C)C)cc1C | 3.34
CCc1ccccc1C(=O)N(NC(=O)c1ccccc1)C(C)(C)C | 2.96
CC(C)(C)N(NC(=O)c1ccccc1)C(=O)c1ccccc1I | 2.83
CC(C)(C)N(NC(=O)c1ccccc1)C(=O)c1ccc(Cl)cc1 | 3.42
CC(C)(C)N(NC(=O)c1ccccc1)C(=O)c1cccc(I)c1 | 3.72
CC(C)(C)N(NC(=O)c1cccc(Cl)c1)C(=O)c1ccccc1Cl | 3.49
CC(C)(C)N(NC(=O)c1ccccc1)C(=O)c1ccc(C#N)cc1 | 2.5

Second part, the compound after the results:

logP | Compound
2.04 | COc1ccccc1C(=O)N(NC(=O)c1ccccc1)C(C)(C)C
2.79 | Cc1cccc(C(=O)N(NC(=O)c2ccccc2)C(C)(C)C)c1
2.69 | CC(C)(C)N(NC(=O)c1ccccc1)C(=O)c1ccccc1Br
3.66 | CC(C)(C)N(NC(=O)c1ccccc1)C(=O)c1ccc(Br)cc1
3.55 | CC(C)(C)N(NC(=O)c1ccccc1)C(=O)c1ccc(Cl)cc1Cl
2.6 | CSc1ccccc1C(=O)N(NC(=O)c1ccccc1)C(C)(C)C
2.16 | CC(C)(C)N(NC(=O)c1ccccc1)C(=O)c1c(F)cccc1F
3.44 | CC(C)(C)N(NC(=O)c1ccccc1)C(=O)c1cc(F)c(F)c(F)c1F
2.09 | COc1ccc(C(=O)N(NC(=O)c2ccccc2)C(C)(C)C)cc1OC
2.27 | CC(C)(C)N(NC(=O)c1ccccc1)C(=O)c1ccccc1[N+](=O)[O-]
4.25 | CC(C)(C)N(NC(=O)c1ccccc1)C(=O)c1ccc(Cl)c(Cl)c1
2.56 | CC(C)(C)N(NC(=O)c1ccccc1)C(=O)c1c(Cl)cccc1Cl
3.36 | CC(C)(C)N(NC(=O)c1ccccc1)C(=O)c1cc(Cl)ccc1Cl
3.28 | CC(C)(C)N(NC(=O)c1ccccc1)C(=O)c1cccc(Cl)c1
3.25 | Cc1ccc(C)c(C(=O)N(NC(=O)c2ccccc2)C(C)(C)C)c1
2.63 | CC(C)(C)N(NC(=O)c1ccccc1)C(=O)c1ccc([N+](=O)[O-])cc1
2.75 | CC(C)(C)N(NC(=O)c1ccccc1Cl)C(=O)c1ccccc1Cl
2.78 | CC(C)(C)N(NC(=O)c1ccccc1)C(=O)c1cccc(F)c1
3.18 | Cc1ccc(C(=O)N(NC(=O)c2ccccc2)C(C)(C)C)c(C)c1
3.49 | CC(C)(C)N(NC(=O)c1ccccc1)C(=O)c1cccc(Br)c1

— the OPERA property sets (Mansouri et al. 2018)
